Earlier results, collected in US20220372042A1, “CONDENSED HETEROCYCLES AS BCL-2 INHIBITORS” (Newave Pharmaceutical Inc., priority 2019, published 2022).

How the values were obtained:
[1] = in vivo
[2] = system: established tumors; details: mouse, in vivo
[3] = system: DoHH2, Granta-519 xenografts; details: single agent or in combination with Bendamustine and other agents
[4] = system: CLL; details: average; read-out: average EC50 apoptosis in CLL
[5] = system: CLL who have 17p deletion; details: CLL with 17p deletion
[6] = system: RS4; 11 cells
[7] = system: RS4; 11 xenografts; details: single dose of 100 mg/kg
[8] = system: SCLC H146 cell line; details: read-out: IC50 against SCLC H146 cell line
[9] = system: H345 xenograft; details: 100 mg/kg/day, H345 xenograft model
[10] = system: circulating platelets; details: patients, clinical trial
[11] = molecular target: T1, Bcl-w (Homo sapiens, UniProt Q92843)
T1 sequence (Q92843 1-193): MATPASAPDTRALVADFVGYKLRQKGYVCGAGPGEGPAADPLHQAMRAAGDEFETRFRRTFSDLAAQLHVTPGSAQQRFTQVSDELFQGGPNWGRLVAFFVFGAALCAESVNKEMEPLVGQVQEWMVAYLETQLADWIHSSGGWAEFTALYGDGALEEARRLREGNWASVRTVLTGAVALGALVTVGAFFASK

[12] = system: xenograft models of small-cell lung cancer and acute lymphoblastic leukemia; details: single agent

## CN(C)CC[C@H](CSc1ccccc1)Nc1ccc(S(=O)(=O)NC(=O)c2ccc(N3CCN(Cc4ccccc4-c4ccc(Cl)cc4)CC3)cc2)cc1[N+](=O)[O-] [ABT-737]
[1]
  oral bioavailability: not orally bioavailable
other
  aqueous solubility: low aqueous solubility
[2]
  efficacy in animal models: improves survival, causes regression of established tumors, and produces cures in a high percentage of the mice

## CC1(C)CCC(CN2CCN(c3ccc(C(=O)NS(=O)(=O)c4ccc(NCC5CCOCC5)c([N+](=O)[O-])c4)c(Oc4cnc5[nH]ccc5c4)c3)CC2)=C(c2ccc(Cl)cc2)C1 [ABT-199]
[3]
  xenograft growth: inhibits xenograft growth
[4]
  EC50: 3 nM
[5]
  clinical efficacy: highly efficacious
[6]
  EC50: 8 nM
[7]
  maximal tumor growth inhibition: 95%
  tumor growth delay: 152%

## CC1(C)CCC(c2ccc(Cl)cc2)=C(CN2CCN(c3ccc(C(=O)NS(=O)(=O)c4ccc(N[C@H](CCN5CCOCC5)CSc5ccccc5)c(S(=O)(=O)C(F)(F)F)c4)cc3)CC2)C1 [ABT-263]
[8]
  IC50: 110 nM
[9]
  TGI: 80%
  treated tumors indicating at least a 50% reduction in tumor volume: 20%
[10]
  number of circulating platelets: rapid, concentration-dependent decrease
[11]
  Ki: ≤ 1 nM
[12]
  tumor response after oral administration alone: complete tumor regressions
